Consider two compounds from article PMC8204911 (ACS Pharmacology & Translational Science, 2021).

Residues, ends and D or L forms follow the SMILES beside them. *: point of attachment. Cbz = O=C(OCc1ccccc1)*; CH2F = FC*

For orientation: IC50 means the midpoint of a concentration-inhibition curve.

In experiment [1] the target is T1, caspase-3 (Homo sapiens, UniProt P42574).
T1 sequence (P42574 29-175 limits assumed): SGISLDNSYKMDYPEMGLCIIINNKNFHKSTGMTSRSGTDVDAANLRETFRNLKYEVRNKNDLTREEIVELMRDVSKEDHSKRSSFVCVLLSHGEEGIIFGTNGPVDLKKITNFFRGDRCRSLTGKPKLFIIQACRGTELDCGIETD
T1 sequence (P42574 176-277 limits assumed): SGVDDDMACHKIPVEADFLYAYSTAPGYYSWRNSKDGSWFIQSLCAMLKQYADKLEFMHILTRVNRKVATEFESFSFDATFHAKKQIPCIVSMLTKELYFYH
The experiment is classed as biochemical. The conditions noted are these: read-out: Caspase-3 IC50.

Experiment [2] addresses SARS-CoV-2 M^pro (Severe acute respiratory syndrome coronavirus 2, UniProt P0DTD1). As to conditions: at 20 μM, authors' previous screening; cited from earlier work.

In the case of `COC(=O)C[C@H](NC(=O)[C@H](C)NC(=O)[C@@H](NC(=O)OCc1ccccc1)C(C)C)C(=O)CF` [Z-VAD-FMK] (Cbz-Val-Ala-Asp(OMe)-CH2F), in experiment [1], the IC50 is 0.1 ± 0.04 µM. On to `CCC[C@H](NC(=O)[C@@H]1[C@H]2CCC[C@H]2CN1C(=O)[C@@H](NC(=O)[C@@H](NC(=O)c1cnccn1)C1CCCCC1)C(C)(C)C)C(=O)C(=O)NC1CC1` [telaprevir], for which the “inhibition of M^pro enzymatic activity” value in experiment [2] is 31%.
